Test results: article PMC2959128 (Journal of the American Chemical Society, 2010)

Target: T1, phosphopantetheinyl transferase Sfp (Bacillus subtilis, UniProt P39135)
T1 sequence (P39135 1-224): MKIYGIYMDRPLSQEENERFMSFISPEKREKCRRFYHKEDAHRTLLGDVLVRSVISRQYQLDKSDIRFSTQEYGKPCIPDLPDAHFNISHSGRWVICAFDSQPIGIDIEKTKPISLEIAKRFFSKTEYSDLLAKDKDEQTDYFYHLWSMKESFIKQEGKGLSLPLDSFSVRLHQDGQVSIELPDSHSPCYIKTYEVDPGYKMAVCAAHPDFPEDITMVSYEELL
Assay: acyl-phosphopantetheinyl transfer to apo-ACP
Assay type: biochemical
Conditions: DEBS apo-ACP6 as acceptor

Row | Compound | acyl-phosphopantetheinyl transfer to apo-ACP; LC-ESI(+)-MS
1 | CC[C@@H](O)[C@@H](C)C(=O)SCCNC(=O)CCNC(=O)[C@H](O)C(C)(C)COP(=O)(O)OP(=O)(O)OC[C@H]1O[C@@H](n2cnc3c(N)ncnc32)[C@H](O)[C@@H]1OP(=O)(O)O [2a-SCoA] | from DEBS apo-ACP6 using the phosphopantetheinyl transferase Sfp
2 | CC/C=C(\C)C(=O)SCCNC(=O)CCNC(=O)[C@H](O)C(C)(C)COP(=O)(O)OP(=O)(O)OC[C@H]1O[C@@H](n2cnc3c(N)ncnc32)[C@H](O)[C@@H]1OP(=O)(O)O [3-SCoA] | from DEBS apo-ACP6 using the phosphopantetheinyl transferase Sfp
